Tests used:
[1] = weighting of plasma concentration; cited from earlier work
[2] = patients homozygous for CYP2D6 PM genotype on double dose (40 mg) of TAM; cited from earlier work
[3] = Plasma concentrations of TAM, TOR and their metabolites by LC–MS/MS (screening study)
[4] = 14 poor TAM metabolizers enrolled in the dose-escalation study
[5] = patients on TAM 20 mg a day, N=182

- Endoxifen on TAM 20 mg, max [3, 4]: 12.6 ng/mL
- Endoxifen on TAM 20 mg, mean [3, 4]: 9.7 ng/mL
- Endoxifen on TAM 20 mg, median [3, 4]: 10.4 ng/mL
- Endoxifen on TAM 20 mg, min [3, 4]: 1.8 ng/mL
- Patients with endoxifen levels lower than 15 ng/mL ([3]; among the 182 patients on TAM): 50
- Patients with endoxifen levels < 7.5 ng/mL ([3]; of the 273 participating patients): 11
- Plasma concentration, max [3, 5]: 64.5 ng/mL
- Plasma concentration, mean [3, 5]: 23.5 ng/mL
- Plasma concentration, median [3, 5]: 22.8 ng/mL
- Plasma concentration, min [3, 5]: 1.8 ng/mL
- Plasma concentration, variability (range) ([3]; patients taking TAM 20 mg a day): 1.8 to 64.5 ng/mL
SMILES: CC/C(=C(\c1ccc(O)cc1)c1ccc(OCCNC)cc1)c1ccccc1 [Endoxifen, endoxifen]
- In vitro activity factor in the total activity of TAM (TAM = 1.0) [1]: 46.3
- Endoxifen concentration relative to EMs [2]: less than one-half of the endoxifen concentrations for EMs

Source: paper PMC6694038, “Pharmacogenomic–pharmacokinetic study of selective estrogen-receptor modulators with intra-patient dose escalation in breast cancer” (Breast Cancer (Tokyo, Japan), 2019)
